# Laboratory results as given in patent US11039613B2, “Germination promoters” (SYNGENTA PARTICIPATIONS AG, priority 2017, dated 2021).
# Read-outs that look alike come from different tables or passages of the source.
# How the values were obtained:
# NK Falkone corn seeds [1] = test: Corn seed germination, cold stress (15° C.); assay type: in vivo; details: for T50 (% vs control): control T50 = 110 hours; for Slope compared with closest prior art compound P2 / T50 compared with closest prior art compound P2: vs P2
# Protocol: The effect of compounds of Formula (II-1 and III-1) on the germination of NK Falkone corn seeds under salt and cold stress was evaluated as follows.
# (§1) NK Falkone corn seeds (harvested in 2015) were sorted by size using a sieve to keep away round seeds.
# (§2) The corn seeds were placed in 24 well plates (each plate was considered as one experimental unit or replicate). Germination was initiated by the addition of 200 μl of distilled water containing 0.5% DMSO per well. 8 replicates (i.e. 8 plates) were used for each treatment characterization. Plates were sealed using seal foil (Polyolefin Art. Nr. 900320) from HJ-BIOANALYTIK. All plates were placed in two carrousels in a climatic chamber at 15° C. The experiment was laid out in a completely randomized design in climatic chamber with 60% Relative Humidity.
# (§3) Germination was followed over time by taking photographs at different time points. Image analysis was performed automatically with a macro which was developed using the Image J software. A dynamic analysis of germination was carried out by fitting a logistic curve. Three parameters were calculated from the logistic curve: the T50; the slope and the plateau. All three parameters have a high agronomical relevance and are key requirements to ensure a good early crop-establishment. The T50 and slope for a selection of compounds are outlined in Table 2 below. All the values are expressed as percentages compared to an untreated control. All the three parameters are calculated considering 8 replicates and the kinetic parameters are separately determined for each germination curve. Data in bold indicate germination enhancing statistically significant differences between treated seeds and untreated control (p<0.05). T50 corresponds to the time needed for half of the seed population to germinate. Higher negative %-values indicate faster germination. Slope indicates how synchronous the germination of the seed population is. Positive values indicate steeper curve. The steeper the curve, the better and more uniform the germination is.
# NK Falkone corn seeds [2] = test: Corn seed germination, osmotic stress (PEG 2%) and cold stress (15° C.); assay type: in vivo; details: osmotic (PEG 2%) and cold 15° C.
# Protocol: as §1, §2, §3
# (§4) The effect of compounds of Formula (III-1 and P1) on the germination of NK Falkone corn seeds under salt and cold stress was evaluated as follows.
# The experimental protocol was the same as in Example B1, except that germination was initiated by the addition of 200 μl of distilled water containing 0.5% DMSO and 2% PEG per well.
# Hydrolytic stability = assay type: physicochemical; details: for half-life: aqueous buffer/acetonitrile solution, pH 9, pH 9, buffer/acetonitrile
# Protocol: Prior to conducting the individual hydrolytic stability assays, stock solutions containing 1000 ppm of each test compound (i.e. compounds III-1 and P1) were prepared in acetonitrile.
# The reagents used in the assays were prepared as follows. A 20 mM buffer solution was prepared from a stock solution of 20 mM mixed acetate, borate and phosphate buffer and the pH adjusted to 7 or 9 as required.
# Test solutions were prepared in LC vials for each test compound in the following manner: Hydrolytic Stability: Buffer (750 μL)+acetonitrile (250 μL)+compound stock solution (2 to 40 μL).
# The buffers were initially dispensed into separate glass LC vials, placed into an autosampler complete with thermostat set at 40° C. and allowed to equilibrate for 30 minutes prior to starting the individual assays.
# Analysis was carried out on Waters LCMS systems under reverse phase conditions using 10 cm C18 columns and acetonitrile (HPLC grade) acidified water (0.2% formic acid) mobile phase at a flow rate of 1 ml min-1. Peak detection was at the optimum wavelength (230-250 nm) and peak areas were used for quantification
# Reactions were initiated by addition of the compound solution and monitored through a series of repeat injections made directly from the vial into the HPLC system at regular time intervals. Initial and subsequent measurements of peak area attributable to the test compound were used to fit exponential half-lives and calculate first-order rate constants.
# Consequently, the percentage of compound remaining was recorded at the last assessment time.
# NK Falkone corn seeds [3] = test: Corn seed germination, salt (NaCl, 100 mM) and cold stresses (15° C.); assay type: in vivo; details: cold 15° C. and salt 100 mM NaCl
# Protocol: as §1, §2, §3, §4
# The experimental protocol was the same as in Example B1, except that germination was initiated by the addition of 200 μl of distilled water containing 0.5% DMSO and 100 mM NaCl per well.
# NK Falkone corn seeds [4] = test: Corn seed germination, salt (NaCl, 100 mM) stress and optimal temperature (23° C.); assay type: in vivo; details: salt (NaCl) stress
# Protocol: as §1
# as §2, with “Germination was initiated by the addition of 200 μl of distilled water containing 0.5% DMSO per well.” left out
# as §3
# The experimental protocol was the same as in Example B1, except that the plates were placed in a climatic chamber at 23° C.
compound,measurement,setting,value
CC1=C[C@H](O/C=C2/C(=O)O[C@@H]3Cc4ccccc4[C@H]23)N(c2cc(C(F)(F)F)cc(C(F)(F)F)c2)C1=O [II-1a],Slope (% vs control),NK Falkone corn seeds [1]; Rate 10 μM,18.70 % vs control
same,T50 (% vs control),NK Falkone corn seeds [1]; Rate 10 μM,−2.70 % vs control
same,Slope (% vs control),NK Falkone corn seeds [1]; Rate 50 μM,68.50 % vs control
same,T50 (% vs control),NK Falkone corn seeds [1]; Rate 50 μM,−5.30 % vs control
same,Slope (% vs control),NK Falkone corn seeds [1]; Rate 250 μM,37.00 % vs control
same,T50 (% vs control),NK Falkone corn seeds [1]; Rate 250 μM,−3.20 % vs control
same,Slope compared with closest prior art compound P2,NK Falkone corn seeds [1]; at equivalent rates,higher slope
same,T50 compared with closest prior art compound P2,NK Falkone corn seeds [1]; at equivalent rates,lower T50
CC1=C[C@@H](O/C=C2/C(=O)O[C@@H]3Cc4ccccc4[C@H]23)N(c2cc(C(F)(F)F)cc(C(F)(F)F)c2)C1=O [II-1b],Slope (% vs control),NK Falkone corn seeds [1]; Rate 10 μM,19.20 % vs control
same,T50 (% vs control),NK Falkone corn seeds [1]; Rate 10 μM,−2.50 % vs control
same,Slope (% vs control),NK Falkone corn seeds [1]; Rate 50 μM,41.40 % vs control
same,T50 (% vs control),NK Falkone corn seeds [1]; Rate 50 μM,−5.10 % vs control
same,Slope (% vs control),NK Falkone corn seeds [1]; Rate 250 μM,62.40 % vs control
same,T50 (% vs control),NK Falkone corn seeds [1]; Rate 250 μM,−5.90 % vs control
same,Slope compared with closest prior art compound P2,NK Falkone corn seeds [1]; at equivalent rates,higher slope
same,T50 compared with closest prior art compound P2,NK Falkone corn seeds [1]; at equivalent rates,lower T50
"CC1=CC(O/C=C2/C(=O)NC3Cc4ccccc4C23)N(c2cc(C(F)(F)F)cc(C(F)(F)F)c2)C1=O (stereo not shown) [III-1, (1E)-[[1-[3,5-bis(trifluoromethyl)phenyl]-4-methyl-1-oxo-2H-pyrrol-2-yl]oxymethylene]-3,3a,4,8b-tetrahydroindeno[2,1-b]pyrrol-2-one]",Slope (% vs control),NK Falkone corn seeds [2]; Rate 0.4 μM,1 % vs control
same,T50 (% vs control),NK Falkone corn seeds [2]; Rate 0.4 μM,0.8 % vs control
same,Slope (% vs control),NK Falkone corn seeds [2]; Rate 2 μM,3.9 % vs control
same,T50 (% vs control),NK Falkone corn seeds [2]; Rate 2 μM,−0.2 % vs control
same,Slope (% vs control),NK Falkone corn seeds [2]; Rate 10 μM,7.6 % vs control
same,T50 (% vs control),NK Falkone corn seeds [2]; Rate 10 μM,−3.6 % vs control
same,Slope (% vs control),NK Falkone corn seeds [2]; Rate 50 μM,23.8 % vs control
same,T50 (% vs control),NK Falkone corn seeds [2]; Rate 50 μM,−4.0 % vs control
same,Slope compared with closest prior art compound P1,"NK Falkone corn seeds [2]; at equivalent rates, vs P1",higher slope
same,T50 compared with closest prior art compound P1,"NK Falkone corn seeds [2]; at equivalent rates, vs P1",lower T50
same,half-life,"Hydrolytic stability; 40° C., less polar isomer, read-out: Hydrolytic stability pH9 (t½), less polar isomer (converted)",> 59 h
same,half-life,"Hydrolytic stability; 40° C., more polar isomer, read-out: Hydrolytic stability pH9 (t½), more polar isomer",> 59 h
same,"% remaining, less polar isomer","Hydrolytic stability; pH 9, 40° C., at 17.6 hours, less polar isomer",97.5% remaining at 17.6 hours
same,"% remaining, more polar isomer","Hydrolytic stability; pH 9, 40° C., at 17.6 hours, more polar isomer",94.9% remaining at 17.6 hours
same,Hydrolytic stability compared with less polar isomer of P1,"Hydrolytic stability; pH 9, less polar isomer, vs P1",more stable
same,Slope (% vs control),NK Falkone corn seeds [1]; Rate 0.4 μM,7.3 % vs control
same,T50 (% vs control),NK Falkone corn seeds [1]; Rate 0.4 μM,−0.7 % vs control
same,Slope (% vs control),NK Falkone corn seeds [1]; Rate 2 μM,14.3 % vs control
same,T50 (% vs control),NK Falkone corn seeds [1]; Rate 2 μM,1.3 % vs control
same,Slope (% vs control),NK Falkone corn seeds [1]; Rate 10 μM,82.6 % vs control
same,T50 (% vs control),NK Falkone corn seeds [1]; Rate 10 μM,−8.5 % vs control
same,Slope (% vs control),NK Falkone corn seeds [1]; Rate 50 μM,175.6 % vs control
same,T50 (% vs control),NK Falkone corn seeds [1]; Rate 50 μM,−10.1 % vs control
same,Slope compared with closest prior art compound P1,"NK Falkone corn seeds [1]; at equivalent rates, vs P1",higher slope
same,Slope (% vs control),NK Falkone corn seeds [3]; Rate 0.4 μM,−4 % vs control
same,T50 (% vs control),NK Falkone corn seeds [3]; Rate 0.4 μM,−0.5 % vs control
same,Slope (% vs control),NK Falkone corn seeds [3]; Rate 2 μM,7.4 % vs control
same,T50 (% vs control),NK Falkone corn seeds [3]; Rate 2 μM,−1.2 % vs control
same,Slope (% vs control),NK Falkone corn seeds [3]; Rate 10 μM,54.1 % vs control
same,T50 (% vs control),NK Falkone corn seeds [3]; Rate 10 μM,−9.3 % vs control
same,Slope (% vs control),NK Falkone corn seeds [3]; Rate 50 μM,114.7 % vs control
same,T50 (% vs control),NK Falkone corn seeds [3]; Rate 50 μM,−6.1 % vs control
same,Slope (% vs control),NK Falkone corn seeds [4]; Rate 0.4 μM,1.2 % vs control
same,T50 (% vs control),NK Falkone corn seeds [4]; Rate 0.4 μM,−0.5 % vs control
same,Slope (% vs control),NK Falkone corn seeds [4]; Rate 2 μM,−0.4 % vs control
same,T50 (% vs control),NK Falkone corn seeds [4]; Rate 2 μM,−0.2 % vs control
same,Slope (% vs control),NK Falkone corn seeds [4]; Rate 10 μM,85.8 % vs control
same,T50 (% vs control),NK Falkone corn seeds [4]; Rate 10 μM,−11 % vs control
same,Slope (% vs control),NK Falkone corn seeds [4]; Rate 50 μM,132.5 % vs control
same,T50 (% vs control),NK Falkone corn seeds [4]; Rate 50 μM,−15.9 % vs control
same,Slope compared with closest prior art compound P1,"NK Falkone corn seeds [4]; at equivalent rates, vs P1",higher slope
same,T50 compared with closest prior art compound P1,"NK Falkone corn seeds [4]; at equivalent rates, vs P1",lower T50
